In a melting point compilation (Tetko et al.; mined from patent text by program, amines drawn as free bases though some values may be those of a salt):

Compared with `O=C1NC(=O)c2c1c(-c1ccccc1Cl)cc1c2c2cc(O)ccc2n1CCS(=O)c1ncn[nH]1` (centres undefined), `O=C(c1ccc(Cl)cc1)c1c(N2C(=O)c3ccccc3C2=O)sc(-c2ccccc2)c1CBr` is lower in melting point: 237 to 242 °C for the first, 160 to 161 °C for the second.

First: O=C1C(=Cc2ccccc2)CCCC1c1ccccc1 (centres undefined)
Second: N#Cc1ccc2c(c1)OC(c1ccccc1)(c1ccccc1)O2
The melting point of the first is lower: 75 to 78 °C for the first, 106 to 107 °C for the second.

First: CCOC(=O)c1cn(-c2ncnn2C)c2cc(F)c(F)cc2c1=O
Second: CCOC(=O)c1cc(Oc2cc(Cl)c(Cl)cc2Cl)ccc1[N+](=O)[O-]
The melting point of the first is higher: 230 to 231 °C for the first, 99 to 102 °C for the second.

Compared with `CSC[C@H](C)NC(=O)c1c(I)cccc1C(=O)Nc1ccc(Cc2cc(C(F)(F)F)cc(C(F)(F)F)c2)cc1C`, `Cc1ccc(C(=O)NCc2cc(C(C)(C)O)cc(C(F)(F)F)c2)cc1Nc1nccc(-c2cccnc2)n1` is higher in melting point: 85 to 94 °C for the first, 253 to 258 °C for the second.

First: CNC(=S)C1=C(O)C2(CCOCC2)Oc2ccc([N+](=O)[O-])cc21
Second: CCOCc1nc2c(N)nc3cc(Br)ccc3c2n1CC1CCN(C(=O)N2CCOCC2)CC1
The melting point of the first is higher: 217 to 218 °C for the first, 198 to 199 °C for the second.

First: COC(Cc1ccc(OCCc2nc(C(C)(C)C)oc2C)c2ccsc12)C(=O)O (centres undefined)
Second: CC(C)(C)OC(=O)N[C@@H](COc1ccccc1N)C(=O)O
The melting point of the first is higher: 163 to 165 °C for the first, 90 to 91 °C for the second.

Compared with `O=C1c2ccccc2C(=O)N1CCCCN1CCN(c2ncccn2)CC1`, `OCCCN1CCN2c3ccccc3Cc3ccccc3C2C1` (centres undefined) is lower in melting point: 138 °C for the first, 127 to 128 °C for the second.

Compared with `CCCCCCCC[C@H](O)C(=O)O`, `CCCCCCNC(=O)Oc1ccc2c(c1)CCCN2` is higher in melting point: 70 to 72 °C for the first, 100 °C for the second.

`COc1c(F)cc(-c2c(-c3ccc(S(C)(=O)=O)cc3)cnn(-c3ccc(F)c(Cl)c3)c2=O)cc1F` and `COc1ccc(-c2cc(-c3cc(C)ns3)c(=O)n(C)c2-c2ccncc2)cc1` cannot be ordered by melting point: 195 to 197 °C for the first, 195 to 198 °C for the second.

Compared with `CCOC(=O)C1=C(C(=O)OCC)C(c2ccccc2[N+](=O)[O-])C(C(=O)OCC)=C(C(=O)OCC)N1`, `CCOC(=O)CC[C@H](NC(=O)c1ccc(CCC2CNc3nc(NC(=O)C(C)(C)C)nc(O)c3C2)cc1)C(=O)OCC` (some centres undefined) is higher in melting point: 109 °C for the first, greater than 250 °C for the second.

Compared with `C=C1CCC(C(O)C(N)=O)CC1` (centres undefined), `CC1(C)C2CCC1(CCCC(=O)O)CC2` is lower in melting point: 127 to 129 °C for the first, 72 to 73 °C for the second.

First: Cc1cccc(Nc2ncnc3ccc(-n4cnc5ccccc54)cc23)c1
Second: Cc1ccc2nc(-c3ccc(-c4ccccc4)cc3)c(O)c(C(=O)O)c2c1
The melting point of the first is higher: 245 to 246 °C for the first, 236 to 238 °C for the second.

First: Cc1cc2cn[nH]c2c(C(=O)NC2(C3CC3)CC2)c1NC(=O)c1cc(OCC(F)(F)F)nn1-c1ncccc1Cl
Second: NS(=O)(=O)c1cccc(NC(=O)c2cnn3c(C(F)(F)F)cc(-c4ccc(Cl)c(Cl)c4)nc23)c1
The melting point of the first is lower: 240 to 242 °C for the first, 302 °C for the second.

First: NCCc1c2n(c3ccccc13)CCNCC2
Second: Cc1ccccc1-n1c(=O)c(N2CCNCC2)nc2ccccc21
The melting point of the first is lower: 77 to 80 °C for the first, 151 to 153 °C for the second.

Compared with `COc1ccc(NCCCOc2ccc3ccc(OCCCNc4ccc(OC)cc4)cc3c2)cc1`, `COC(=O)c1ccc(Cn2nc(-c3ccc(OC)cc3)c(-c3ccc(OC)cc3)cc2=O)cc1` is higher in melting point: 127 °C for the first, 186 to 187 °C for the second.

Compared with `O[C@@H](CNCCOc1ccc2oc(-c3noc(C(F)(F)F)n3)cc2c1)COc1ccccc1F`, `OC(CN1CCC(c2noc3cc(F)ccc23)CC1)CN1CCc2ccccc2C1` (centres undefined) is higher in melting point: 117 to 119 °C for the first, 179 to 181 °C for the second.

Compared with `O=C1SC2CCN(Cc3ccccc3Cl)CC2=C1O` (centres undefined), `O=c1oc2c(c(O)c1-c1ccccc1)CCCC2` is higher in melting point: 121 °C for the first, 168 °C for the second.

Compared with `Cc1occ2c1-c1ccccc1C(=C1CCN(C)CC1)c1ccccc1-2`, `Cc1nc2c(-c3ccc(N4CCN(C)CC4)cc3)cnn2c(N)c1-c1ccc(F)cc1` is higher in melting point: 80 to 86 °C for the first, 289 to 291 °C for the second.

First: CC(=O)NC[C@H]1CN(c2ccc(C3=CCN(C(=O)OCc4ccccc4)CC3)cc2)C(=O)O1
Second: CCN(CCc1ccccc1OCc1ccccc1)c1ccc(C(=O)O)cc1
The melting point of the first is lower: 166 to 169 °C for the first, 175 °C for the second.

Compared with `C(=C\c1nc2ccccc2n1-c1ccccn1)/c1ccoc1`, `C#Cc1c(C(C)C)cc(-c2ccccc2)nc1-c1ccc(F)cc1` is lower in melting point: 162 to 164 °C for the first, 121 to 124 °C for the second.

First: CC=C1CCC(C(=O)OCCOC(=O)C2=C(C)C(=CC)CC2)=C1C
Second: C=CCOC(=O)C(C(=O)NC1C(=O)N2C1SC(C)(C)C2C(=O)OCC=C)=C1SCCS1 (centres undefined)
The melting point of the first is higher: 95 to 97 °C for the first, 76 to 77 °C for the second.

First: CC1(C)CCC(C)(C)c2cc(N(Cc3cccs3)C(=O)Nc3ccc(C(=O)O)cc3)ccc21
Second: COc1ccc(-c2ccc3c(c2)C=C(C(=O)Nc2ccc(CN(C)C4CCC5(CC4)OCCO5)cc2)CCS3(=O)=O)cc1
The melting point of the first is lower: 167 to 170 °C for the first, 222 to 228 °C for the second.

Compared with `O=[N+]([O-])C1(Cc2ccccc2)CN(Cc2ccccc2)CCN(Cc2ccccc2)C1`, `Cc1cc(Cc2ccccc2)c(NS(=O)(=O)Cc2ccccc2)c(=O)n1CC(=O)O` is higher in melting point: 66 to 69 °C for the first, greater than 200 °C for the second.

First: CC(=O)NCCCCc1ccc(C(=O)CC(C)C#N)cc1 (centres undefined)
Second: COC(=O)CCc1ccc(NC(=O)NNC(C)=O)cc1
The melting point of the first is lower: 89 to 90 °C for the first, 159 to 165 °C for the second.

Compared with `CCCOc1ccccc1C1=NC(=O)C2=NC(C)=NC2=N1`, `CCc1cccc(C)c1S(=O)(=O)c1nc[nH]n1` is lower in melting point: 264 to 265 °C for the first, 180 to 181 °C for the second.

First: Cn1cc(C(=O)O)c(=O)c2cc3cc(F)c(N4CCNC(c5ccc(OCCO)cc5)C4)cc3nc21 (racemic)
Second: CC(=O)c1ccc2c(c1)oc(=O)n2CCCN1CCC(c2noc3cc(F)ccc23)CC1
The melting point of the first is higher: 276 °C for the first, 152 to 154 °C for the second.

Compared with `COC1CCN(c2nnc(-c3ccc(C)cc3)c(-c3ccc(C)cc3)n2)CC1`, `COc1ccc(-c2nc(C(=O)NC(=N)N)sc2-c2ccc(OC)cc2)cc1` is higher in melting point: 120 to 121 °C for the first, 253 to 255 °C for the second.

First: FC(F)(F)c1ccc(-c2cc(C3CC3)cc(Cl)n2)cc1
Second: CN1CCCC1=NC(=O)Nc1ccc(C(F)(F)F)cc1
The melting point of the first is lower: 89 to 93 °C for the first, 128 to 131 °C for the second.

First: O=C(NCCSC(c1ccccc1)(c1ccccc1)c1ccccc1)c1cc2cccc(OCc3ccccc3)c2[nH]1
Second: Cc1c2n(c3ccccc13)C(=O)C(C)(Cc1ncn(C(c3ccccc3)(c3ccccc3)c3ccccc3)c1C)CC2 (centres undefined)
The melting point of the first is higher: 156 to 157 °C for the first, 116 to 118 °C for the second.

First: COC(=O)CN(C)C(=O)CC(Cc1cccc2ccccc12)C(=O)NC(Cc1c[nH]cn1)C(=O)NC(CC(C)C)C(O)C(=O)OC(C)C (mixture of isomers)
Second: CCOC(=O)/C(=C\Nc1cccc(OC)c1)c1ccc(OC)cc1
The melting point of the first is higher: 76 to 80 °C for the first, 60 to 61 °C for the second.

First: CCCCCN1C(=O)C2(COc3cc(F)c(Cl)cc32)c2ccccc21 (centres undefined)
Second: CCCCn1c(C)c(C)cc(NC(=O)c2ccc(F)cc2)c1=O
The melting point of the first is lower: 74 to 76 °C for the first, 129 to 130 °C for the second.

First: O=C1COc2cc(Nc3ccc(O)cc3)ccc2N1
Second: O=C(NC[C@H]1CC[C@@H](Oc2ccc(F)cc2)CC1)c1ccc(O)cc1
The melting point of the first is higher: 270 to 275 °C for the first, 170 °C for the second.

First: COc1cccc(-c2cccc(OC3SCC(O)C(O)C3O)c2)n1 (centres undefined)
Second: Cc1ccc(-c2nc(COc3cccc(OCc4cccc(C)c4C(=O)O)c3)co2)s1
The melting point of the first is higher: 206 °C for the first, 129 to 130 °C for the second.

`NCCc1c(Br)[nH]c2ccc3c(=O)[nH]ccc3c12` and `CCOCc1nc2c(N)nc3cc(-c4cccnc4)ccc3c2n1CCCCS(N)(=O)=O` cannot be ordered by melting point: 252 °C for the first, 250 to 252 °C for the second.

First: CCCS(=O)(=O)c1ccccc1S(=O)(=O)Cl
Second: CCSc1nnc(-c2ccccc2)n1Cc1ccc([N+](=O)[O-])cc1
The melting point of the first is lower: 74 to 77 °C for the first, 108 °C for the second.

First: CC(C)(C)OC(=O)Nc1ccc(CCO)cc1
Second: COc1cc2c(Nc3ccc(Cl)cc3F)ncnc2cc1OCCNC(=O)OC(C)(C)C
The melting point of the first is lower: 104 to 105 °C for the first, 190 to 191 °C for the second.

Compared with `CCO/C=C1\SC(=S)N(C)C1=O`, `CCC(=O)N(C)c1nc(Cl)c([N+](=O)[O-])s1` is higher in melting point: 110 to 111 °C for the first, 132 to 133 °C for the second.

Compared with `CC1CC(C)(C)Nc2ccc3c(c21)C(c1ccc(Cl)cc1)Oc1ccccc1-3` (centres undefined), `COc1ccc(NC(=O)CN2C(=O)c3ccccc3C2=O)c(OC)c1COc1cccc2ccc(C)nc12` is higher in melting point: 158 to 159 °C for the first, 229 to 231 °C for the second.

First: COc1ccc(-c2ccc(C(C)=O)cc2N)cc1
Second: CC(=O)c1ccc2c(c1)Cc1cc(C#N)ccc1-2
The melting point of the first is lower: 152 to 154 °C for the first, 182 to 188 °C for the second.

First: CCc1nc2cc(NS(C)(=O)=O)c(Cl)cc2n1-c1ccc(CCNC(=O)NS(=O)(=O)c2ccc(C)cc2)cc1
Second: NS(=O)(=O)c1ccc(-n2nc(CCCNC(=O)Nc3ccc(OC(F)(F)F)cc3)cc2-c2ccccc2)cc1
The melting point of the first is lower: 101 to 123 °C for the first, 206 to 207 °C for the second.

First: O=C(Nc1ccc(-c2ncc(-c3cccc(NC(=O)c4ccccn4)c3)[nH]2)cc1)c1ccccn1
Second: Cc1cccc(-c2ccc(-c3nnc(-c4cccc(C(=O)O)c4)o3)cc2)c1
The melting point of the first is higher: 255 to 257 °C for the first, 240 to 242 °C for the second.

First: Cc1nc2c3c(c(C(=O)N4CC4)cc2n1C)CCC(c1ccccc1)O3 (centres undefined)
Second: Cc1c(C)c(N2CCN(c3ccccc3)CC2)c(C)c2c1OC(C)(C)C2O (centres undefined)
The melting point of the first is higher: 201 to 204 °C for the first, 142 to 144 °C for the second.

First: CC(=C(C#N)C(=O)Nc1ccccc1C(C)C)N(C)C
Second: CCCc1ccc2c(c1)C(=O)N(c1ccc(C(C)C(=O)O)cc1)C2 (centres undefined)
The melting point of the first is lower: 74 to 78 °C for the first, 175 to 177 °C for the second.

Compared with `COC(=O)c1cc(Cl)cc2c1OCCN2`, `COc1ccc(C(=O)C2CCN(C(C)=O)CC2)c(O)c1` is higher in melting point: 60 to 61 °C for the first, 138 to 140 °C for the second.

First: CCOC(=O)C=Cc1cc(Br)cc(Cc2cccnc2)c1
Second: Cc1cccc(C)c1N(Cc1ccon1)C(=O)CCl
The melting point of the first is higher: 81 to 83 °C for the first, 78 to 81 °C for the second.

First: NC1([C@@H]2CCN(c3ccc4c(=O)c(C(=O)O)cn([C@@H]5C[C@@H]5F)c4c3)C2)CC1
Second: COc1cc2c(cc1OC)CN(c1nc(N)c3cc(OC)c(OC)cc3n1)C2
The melting point of the first is lower: 251 to 253 °C for the first, 264 to 266 °C for the second.

First: CN(CCCCP(=O)(O)O)S(=O)(=O)C(F)(F)C(F)(F)C(F)(F)C(F)(F)C(F)(F)C(F)(F)C(F)(F)C(F)(F)F
Second: CCCCCc1ccc2cc(O)ccc2c1
The melting point of the first is higher: 150 to 163 °C for the first, 94 to 95 °C for the second.
